Measured values taken from patent US20260242438A1 (INSTITUTE OF MATERIA MEDICA, CHINESE ACADEMY OF MEDICAL …, priority 2022, published 2026).
Where a SMILES comes first, the peptide text is derived from it. Bridges are numbered along the chain shown (N, C = ends).

Target: chymotrypsin (Bos taurus, UniProt P00766)
Assay: Determination of enzyme inhibitory activity against chymotrypsin (substrate AAPFpNA, OD 405 nm)
Format: biochemical
Details: for IC50: chymotrypsin 30 nM, AAPFpNA 0.5 mM, pH 7.8, 37° C.; for remaining activity at 0.0001 µM: peptide 0.0001 μM; for remaining activity at 0.001 µM: peptide 0.001 μM; for remaining activity at 0.01 µM: peptide 0.01 μM; for remaining activity at 0.15 µM: peptide 0.15 μM; for remaining activity at 0.3 µM: peptide 0.3 μM; for remaining activity at 1 µM: peptide 1 μM; for remaining activity at 10 µM: peptide 10 μM; for remaining activity at 100 µM: peptide 100 μM; for remaining activity at 0.1 µM: peptide 0.1 μM; for remaining activity at 0.2 µM: peptide 0.2 μM; for remaining activity at 0.4 µM: peptide 0.4 μM; for remaining activity at 5 µM: peptide 5 μM; for inhibitory activity reduced (fold): relative to CH10; for remaining activity at 0.5 µM: peptide 0.5 μM; for remaining activity at 1000 µM: peptide 1000 μM; for remaining activity at 0.75 µM: peptide 0.75 μM; for remaining activity at 0.8 µM: peptide 0.8 μM
Protocol: The substrates N-succinyl-Ala-Ala-Pro-Phe-p-nitroaniline (AAPFpNA) is used in competitive binding reaction to determine the inhibitory activities against α -chymotrypsin. Experiments for a-chymotrypsin was measured in 20 mM CaCl2, 50 mM Tris-HCl buffer (pH 7.8). The concentration of the peptide was measured using optical density (OD) at 280 nm. The Michaelis constant (Km) of the enzyme hydrolysis substrate is calculated from the initial rate of substrate hydrolysis at 405 nm. The absorbance value of the substrate was measured at 405 nm after complete hydrolysis. All data were processed using nonlinear regression.
(1) Added a total 190 μL of reaction buffer (20 mM CaCl2, 50 mM Tris-HCl (pH 7.8)), different concentrations of anti-chymorypsin peptides (CHs) into the pre-cold 96 well plate, followed by preheating at 37° C. for 5 min and centrifugated at 500 rpm for 1 min and allowed to stand for 4 minutes. Then added 8 μL of 750 nM chymotrypsin and incubated at 37° C. for 10 min, and centrifugated at 500 rpm for 1 min and allowed to stand for 9 minutes. Finally, added 2 μL of 50 mM AAPFpNA, and mixed by centrifugation at 500 rpm for 1 min. The plate was incubated at 37° C. for 90 min, and the absorbance value at 405 nm was measured. Three repetitions were made, and only reaction buffer and substrate were added in the blank control as the minimum absorption value (Min OD 405 nm); Only reaction buffer, enzyme and substrate were added in the negative control as the maximum absorption value (Max OD 405 nm).
(2) In the 200 μL of reaction system, the final concentrations of chymotrypsin and AAPFpNA were 30 nM and 0.5 mM, respectively.
Plotted the residual activity of enzyme with […] to obtain the half inhibitory concentration (IC50) of anti-chymorypsin peptides (CHs). Then, substituted it into the formula […]/(1+S/Km) (S, IC50, and Km were substrate concentration, half inhibitory concentration, and Michaelis constant, respectively) to obtain the inhibition constant Ki of anti-chymorypsin peptides (CHs).

[1] = read-out: Residual activity of chymotrypsin

| Structure (SMILES) | Ki [nM] | IC50 [nM] | remaining activity at 0.0001 µM [1] [%] | remaining activity at 0.001 µM [1] [%] | remaining activity at 0.01 µM [1] [%] | remaining activity at 1 µM [1] [%] | remaining activity at 10 µM [1] [%] | remaining activity at 100 µM [1] [%] | remaining activity at 0.1 µM [1] [%] | remaining activity at 0.2 µM [1] [%] | remaining activity at 0.4 µM [1] [%] | inhibitory activity reduced (fold) [times] | remaining activity at 1000 µM [1] [%] | other results |
| --- | --- | --- | --- | --- | --- | --- | --- | --- | --- | --- | --- | --- | --- | --- |
| CC[C@H](C)[C@@H]1NC(=O)[C@H](CO)NC(=O)[C@H](Cc2ccccc2)NC(=O)[C@H]([C@@H](C)O)NC(=O)[C@@H](NC(=O)[C@@H](N)Cc2ccccc2)CSSC[C@@H](C(=O)N[C@@H](Cc2ccc(O)cc2)C(=O)NCC(=O)O)NC(=O)[C@H](CCC(N)=O)NC(=O)[C@@H]2CCCN2C(=O)[C@@H]2CCCN2C1=O [CH5] (H-FCTFSIPPQCYG-OH; disulfide 2-10; C-terminus assumed) | 80 | 190 | 96.7 ± 9.3 | 113 ± 2.4 | 102 ± 3.7 | 11.3 ± 1.5 | 0.3 | 0.3 ± 0.2 |  |  |  |  |  | remaining activity at 0.15 µM [1]: 58.3 ± 2.3%; remaining activity at 0.3 µM [1]: 41.9 ± 5.7%; remaining activity at 0.6 µM (peptide 0.6 μM, read-out: Residual activity of chymotrypsin): 19 ± 0.8% |
| CC[C@H](C)[C@@H]1NC(=O)[C@H](CO)NC(=O)[C@H](Cc2ccc(O)cc2)NC(=O)[C@H]([C@@H](C)O)NC(=O)[C@@H](NC(=O)[C@@H](N)Cc2ccccc2)CSSC[C@@H](C(=O)N[C@@H](Cc2ccc(O)cc2)C(=O)NCC(=O)O)NC(=O)[C@H](CCC(N)=O)NC(=O)[C@@H]2CCCN2C(=O)[C@@H]2CCCN2C1=O [CH10] (H-FCTYSIPPQCYG-OH; disulfide 2-10; C-terminus assumed) | 30 | 60 | 101 |  | 95.1 ± 1.2 | 3.8 ± 0.4 | 0.1 ± 0.1 | -0.1 | 35.4 ± 7.2 | 24.9 ± 3.5 | 18 ± 4.9 |  |  |  |
| CC[C@H](C)[C@@H]1NC(=O)[C@H](CO)NC(=O)[C@H](Cc2ccccc2)NC(=O)[C@H]([C@@H](C)O)NC(=O)[C@@H](NC(=O)[C@@H](N)CO)CSSC[C@@H](C(=O)N[C@@H](Cc2ccc(O)cc2)C(=O)NCC(=O)O)NC(=O)[C@H](CCC(N)=O)NC(=O)[C@@H]2CCCN2C(=O)[C@@H]2CCCN2C1=O [CH11] (H-SCTFSIPPQCYG-OH; disulfide 2-10; C-terminus assumed) | 150 | 350 |  | 98.5 ± 3.1 | 104 ± 1.8 | 17.6 ± 0.8 | 6.5 ± 0.3 | 1.1 ± 0.2 | 95.3 ± 3 |  |  | ~7 |  | remaining activity at 0.15 µM [1]: 82.3 ± 3.3%; remaining activity at 5 µM [1]: 12.5 ± 0.7%; remaining activity at 300 µM (peptide 300 μM, read-out: Residual activity of chymotrypsin): 0.2 ± 0.6% |
| CC[C@H](C)[C@@H]1NC(=O)[C@H](CO)NC(=O)[C@H](Cc2ccc(O)cc2)NC(=O)[C@H]([C@@H](C)O)NC(=O)[C@@H](NC(=O)[C@H](C)N)CSSC[C@@H](C(=O)N[C@@H](Cc2ccccc2)C(=O)O)NC(=O)[C@H](CCCCN)NC(=O)[C@H](C)NC(=O)[C@@H]2CCCN2C1=O [CH18] (H-ACTYSIPAKCF-OH; disulfide 2-10; C-terminus assumed) | 200 | 470 |  | 103.6 ± 0.2 | 102 ± 3.7 |  | 3.4 ± 0.5 | 0.3 ± 0.1 | 102 ± 2.4 | 90.3 ± 4.1 |  |  | 0.1 ± 0.1 | remaining activity at 0.5 µM [1]: 49.4 ± 3.7%; remaining activity at 2.5 µM (peptide 2.5 μM, read-out: Residual activity of chymotrypsin): 3.7 ± 0.5% |
| CC[C@H](C)[C@@H]1NC(=O)[C@@H]2CCCN2C(=O)[C@@H]2CCCN2C(=O)[C@H]([C@@H](C)CC)NC(=O)[C@H](CO)NC(=O)[C@H](Cc2ccccc2)NC(=O)[C@H]([C@@H](C)O)NC(=O)[C@@H](NC(=O)[C@@H](NC(=O)CN)[C@@H](C)O)CSSC[C@@H](C(=O)N[C@@H](CC(N)=O)C(=O)N2CCC[C@H]2C(=O)N[C@@H](CC(N)=O)C(=O)O)NC1=O [CH25] (H-GTCTFSIPPICNPN-OH; disulfide 3-11; C-terminus assumed) |  |  | 99.7 ± 1 | 100 ± 1.9 | 96.9 ± 1.4 | 15.4 ± 1.2 | 1.5 ± 0.3 | 0.2 ± 0.2 |  | 63.1 ± 4.1 |  |  | 0.2 ± 0.1 | remaining activity at 0.3 µM [1]: 44.6 ± 4.9% |
| CC[C@H](C)[C@@H]1NC(=O)[C@@H]2CCCN2C(=O)[C@@H]2CCCN2C(=O)[C@H]([C@@H](C)CC)NC(=O)[C@H](CO)NC(=O)[C@H](Cc2ccccc2)NC(=O)[C@H]([C@@H](C)O)NC(=O)[C@@H](NC(=O)[C@@H](NC(=O)CN)[C@@H](C)O)CSSC[C@@H](C(=O)N[C@@H](CC(N)=O)C(=O)O)NC1=O [CH26] (H-GTCTFSIPPICN-OH; disulfide 3-11; C-terminus assumed) | 230 | 540 |  | 101 ± 1.6 |  | 27.8 ± 2.5 | 2.2 ± 0.2 | 0.3 ± 0.1 | 95.1 ± 2.1 | 83.1 ± 1.1 | 63.2 ± 4.5 |  | 0.1 | remaining activity at 5 µM [1]: 7 ± 0.5% |

The next lines start with results.

| Ki [nM] | IC50 [nM] | remaining activity at 0.0001 µM [1] [%] | remaining activity at 0.001 µM [1] [%] | remaining activity at 0.01 µM [1] [%] | remaining activity at 1 µM [1] [%] | remaining activity at 10 µM [1] [%] | remaining activity at 100 µM [1] [%] | remaining activity at 0.1 µM [1] [%] | remaining activity at 0.2 µM [1] [%] | remaining activity at 0.4 µM [1] [%] | inhibitory activity reduced (fold) [times] | remaining activity at 1000 µM [1] [%] | Structure (SMILES) | other results |
| --- | --- | --- | --- | --- | --- | --- | --- | --- | --- | --- | --- | --- | --- | --- |
| 190 | 440 |  | 99.5 ± 1.4 | 92.1 ± 2.1 | 19.8 ± 1 | 2 ± 0.2 | 0.1 | 93.6 ± 1.6 |  |  |  | 0.1 | CC[C@H](C)[C@@H]1NC(=O)[C@H](CO)NC(=O)[C@H](Cc2ccc(O)cc2)NC(=O)[C@H]([C@@H](C)O)NC(=O)[C@@H](NC(=O)[C@@H](N)Cc2ccccc2)CSSC[C@@H](C(=O)N[C@@H](Cc2ccc(O)cc2)C(=O)O)NC(=O)[C@H](CCC(N)=O)NC(=O)[C@@H]2CCCN2C(=O)[C@@H]2CCCN2C1=O [CH33] (H-FCTYSIPPQCY-OH; disulfide 2-10; C-terminus assumed) | remaining activity at 0.5 µM [1]: 42.7 ± 3.1%; remaining activity at 0.75 µM [1]: 24.6 ± 2% |
| 160 | 370 |  | 102.3 ± 0.8 | 104.1 ± 0.5 | 17.8 ± 0.9 | 1.2 ± 0.1 | 0.1 | 104.8 ± 0.6 | 78.5 ± 2.5 | 45.5 ± 1.5 |  |  | CC[C@H](C)[C@@H]1NC(=O)[C@H](CO)NC(=O)[C@H](Cc2ccc(O)cc2)NC(=O)[C@H]([C@@H](C)O)NC(=O)[C@@H](NC(=O)[C@@H](N)Cc2ccccc2)CSSC[C@@H](C(=O)N[C@@H](Cc2ccc(O)cc2)C(=O)N[C@@H](C)C(=O)O)NC(=O)[C@H](CCC(N)=O)NC(=O)[C@@H]2CCCN2C(=O)[C@@H]2CCCN2C1=O [CH34] (H-FCTYSIPPQCYA-OH; disulfide 2-10; C-terminus assumed) | remaining activity at 0.75 µM [1]: 24.5 ± 0.9% |
| 190 | 450 |  | 100.8 ± 0.9 | 101 ± 1.2 | 16.6 ± 4.7 | 2.6 ± 0.2 | 0 | 101 ± 2.6 | 78.9 ± 2.9 | 58.8 ± 3.4 | ~7 |  | CC[C@H](C)[C@@H]1NC(=O)[C@H](CO)NC(=O)[C@H](Cc2ccc(O)cc2)NC(=O)[C@H]([C@@H](C)O)NC(=O)[C@@H](NC(=O)[C@@H](N)Cc2ccccc2)CSSC[C@@H](C(=O)N[C@@H](CCCNC(=N)N)C(=O)O)NC(=O)[C@H](CCC(N)=O)NC(=O)[C@@H]2CCCN2C(=O)[C@@H]2CCCN2C1=O [CH35] (H-FCTYSIPPQCR-OH; disulfide 2-10; C-terminus assumed) | remaining activity at 0.8 µM [1]: 27.3 ± 2.9% |
| 200 | 460 |  | 100 ± 1.2 | 100 ± 0.2 | 24.3 ± 2.4 | 3 ± 0.2 | 0.3 | 95.4 ± 2.2 | 80.3 ± 3.9 | 54.2 ± 1.8 | ~7 |  | CC[C@H](C)[C@@H]1NC(=O)[C@H](CO)NC(=O)[C@H](Cc2ccc(O)cc2)NC(=O)[C@H]([C@@H](C)O)NC(=O)[C@@H](NC(=O)[C@@H]2CCCN2)CSSC[C@@H](C(=O)N[C@@H](Cc2ccc(O)cc2)C(=O)O)NC(=O)[C@H](CCC(N)=O)NC(=O)[C@@H]2CCCN2C(=O)[C@@H]2CCCN2C1=O [CH51] (H-PCTYSIPPQCY-OH; disulfide 2-10; C-terminus assumed) | remaining activity at 0.8 µM [1]: 31.2 ± 1.6% |
